From ChEMBL document CHEMBL5241079, “Inhibitors of BCL2A1/Bfl-1 protein: Potential stock in cancer therapy” (Eur J Med Chem, 2021)

Columns and labels:
[1] = target: T1, Bcl-2-like protein 11/Bcl-2-related protein A1 (Homo sapiens, UniProt O43521+Q16548); test: Inhibition of Bfl-1/Bim (unknown origin) incubated for 30 mins by TR-FRET assay; type: protein-complex assay
[2] = target: T1, Bcl-2-like protein 11/Bcl-2-related protein A1; test: Inhibition of Bfl-1/Bim (unknown origin) by fluorescence polarization assay; type: protein-complex assay
[3] = target: T1, Bcl-2-like protein 11/Bcl-2-related protein A1; test: Inhibition of Bfl-1/Bim (unknown origin) assessed as inhibition constant by fluorescence polarization assay; type: protein-complex assay
[4] = Lipophilicity, logP of compound; type: physicochemical; details: octanol/water
Bcl-2-related protein A1 [5] = target: T2, Bcl-2-related protein A1 (Homo sapiens, UniProt Q16548); test: Inhibition of Bfl-1 (unknown origin) by fluorescence polarization assay
T2 sequence (Q16548 whole entry): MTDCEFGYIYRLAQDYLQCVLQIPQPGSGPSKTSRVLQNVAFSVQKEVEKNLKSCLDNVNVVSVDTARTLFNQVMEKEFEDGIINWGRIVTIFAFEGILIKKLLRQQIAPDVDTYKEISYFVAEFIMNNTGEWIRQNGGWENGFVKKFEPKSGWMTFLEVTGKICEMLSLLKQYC

Bcl-2-related protein A1 [6] = target: T2, Bcl-2-related protein A1; test: Displacement of fluorescent-labeled BID-BH3 peptide from His-tagged BFL-1 (unknown origin)
[7] = target: T3, Apoptosis regulator Bcl-2 (Homo sapiens, UniProt P10415); test: Displacement of fluorescein tagged BID BH3 peptide from GST-tagged recombinant Bcl-2 (unknown origin) by fluorescence polarization-based competitive binding assay
[8] = target: Induced myeloid leukemia cell differentiation protein Mcl-1 (Homo sapiens) (UniProt Q07820); test: Displacement of fluorescein tagged BID BH3 peptide from GST-tagged recombinant Mcl-1 (unknown origin) by fluorescence polarization-based competitive binding assay
[9] = target: T3, Apoptosis regulator Bcl-2; test: Inhibition of Bcl-2 (unknown origin) by fluorescence polarization assay

T1 sequence (O43521 whole entry, one chain of several): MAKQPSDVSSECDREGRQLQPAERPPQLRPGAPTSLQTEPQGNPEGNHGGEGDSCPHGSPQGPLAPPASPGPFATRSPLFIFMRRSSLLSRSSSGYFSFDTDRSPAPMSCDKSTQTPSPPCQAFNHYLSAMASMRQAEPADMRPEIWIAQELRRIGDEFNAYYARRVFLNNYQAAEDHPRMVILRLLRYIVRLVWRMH
T3 sequence (P10415 whole entry): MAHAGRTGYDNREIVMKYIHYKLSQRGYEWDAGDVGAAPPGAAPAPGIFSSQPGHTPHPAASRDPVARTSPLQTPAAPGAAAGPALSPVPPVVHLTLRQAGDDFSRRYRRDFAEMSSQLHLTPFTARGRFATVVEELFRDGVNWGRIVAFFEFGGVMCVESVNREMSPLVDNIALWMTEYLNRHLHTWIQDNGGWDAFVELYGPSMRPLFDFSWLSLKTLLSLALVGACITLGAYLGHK
Chain of Induced myeloid leukemia cell differentiation protein Mcl-1 (Homo sapiens) (Q07820 whole entry): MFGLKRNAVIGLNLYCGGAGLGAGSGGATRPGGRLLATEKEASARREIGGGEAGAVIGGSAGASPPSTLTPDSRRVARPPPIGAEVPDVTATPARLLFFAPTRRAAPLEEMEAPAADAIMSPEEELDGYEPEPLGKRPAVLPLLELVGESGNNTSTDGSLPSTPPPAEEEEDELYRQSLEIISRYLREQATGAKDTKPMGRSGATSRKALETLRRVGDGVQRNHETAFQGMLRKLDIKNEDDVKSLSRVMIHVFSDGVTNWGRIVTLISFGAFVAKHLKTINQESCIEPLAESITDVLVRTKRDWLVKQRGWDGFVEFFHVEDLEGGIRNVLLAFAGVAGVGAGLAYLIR

Q: With `COc1ccc(C(c2c(-c3ccccc3)n(O)c3ccccc23)N2CCN(C)CC2)cc1` (stereo not given) as the compound, how does the IC50 [1] read?
A: Its IC50 is 1.4 µM.

Q: And the IC50 [2]?
A: Its IC50 is 0.8 µM.

Q: What about the Ki [3] of the same compound?
A: Its Ki is 0.4 µM.

Q: And the logP [4]?
A: The logP was 4.

Q: For `CCOc1ccc(N2C(=O)/C(=C/C=C/c3ccccc3)C(=O)NC2=S)cc1`, which IC50 (Bcl-2-related protein A1 [5]) is on record?
A: The IC50 was 1.3 µM.

Q: With `CC(=O)N[C@@H](Cc1c[nH]c2ccccc12)C(=O)NCCSSCCN(C)C` as the compound, how does the EC50 (Bcl-2-related protein A1 [6]) read?
A: Its EC50 is 0.023 µM.

Q: For `O=C1NC(=S)N(c2cccc(Br)c2)C(=O)/C1=C/C=C/c1ccccc1`, which IC50 (Bcl-2-related protein A1 [5]) is on record?
A: Its IC50 is 1.6 µM.

Q: Which results are given for `CSc1ccc(C(Nc2ccccn2)c2c(C)[nH]c3ccccc23)cc1` (stereo not given)?
A: IC50 [1]: 2.5 µM; IC50 [2]: 6.3 µM; Ki [3]: 2.9 µM; logP [4]: 4

Q: For `CC(C)=CCC[C@]1(C)C=Cc2c(O)c3c(c(CC=C(C)C)c2O1)O[C@]12C(=C[C@@H]4C[C@H]1C(C)(C)O[C@@]2(C/C=C(/C)C(=O)O)C4=O)C3=O` [GAMBOGIC ACID], which IC5 [7] is on record?
A: Its IC5 is 1.21 µM.

Q: What about the IC5 [8] of the same compound?
A: Its IC5 is 0.79 µM.

Q: And the IC50 [9]?
A: Its IC50 is 0.122 µM.

Q: Which IC50 [9] does the source give for `CC1=C(C2=C(C)C(=O)c3c(cc(O)c(O)c3Cc3ccccc3)C2=O)C(=O)c2cc(O)c(O)c(Cc3ccccc3)c2C1=O` here?
A: The IC50 was 1.3 µM.
